≈ marks a conversion by molar mass, not a printed value.
Key:
physchem = conditions: buffer, pH 7.4
[1] = Solubility of the compound in pH 6.5 FaSSIF at […] measured after 16 hrs by HPLC analysis; format: physicochemical
[2] = Permeability of the compound at pH 7.4 by artificial membrane permeability assay; format: ADME; conditions: PAMPA, read-out: permeability
[3] = Intrinsic clearance in Wistar Han rat cryopreserved pooled hepatocytes at 0.5 uM measured up to 60 mins by LC-MS/MS analysis; format: ADME, tissue-based, Hepatocyte; conditions: 1 h
[4] = Intrinsic clearance in Beagle dog cryopreserved pooled hepatocytes at 0.5 uM measured up to 120 mins by LC-MS/MS analysis; format: ADME, tissue-based, Canis lupus familiaris, Hepatocyte; conditions: 2 h
[5] = Intrinsic clearance in human cryopreserved pooled hepatocytes at 0.5 uM measured up to 120 mins by LC-MS/MS analysis; format: ADME, tissue-based, Hepatocyte; conditions: 2 h
[6] = Clearance in Wistar Han rat at 1 mg/kg, iv administered as 1 hr infusion or 3 mg/kg, po administered via gavage by LC-MS/MS analysis; format: ADME, organism-based; conditions: in vivo
[7] = Clearance in Beagle dog at 0.5 mg/kg, iv administered as 1 hr infusion on day 1 and day 7 to achieve a target dose of 1 mg/kg by LC-MS/MS analysis; format: ADME, organism-based, Canis lupus familiaris; conditions: in vivo, dose 0.5-1 mg/kg, time 7 day
[8] = Volume of distribution at steady state in Wistar Han rat at 1 mg/kg, iv administered as 1 hr infusion or 3 mg/kg, po administered via gavage by LC-MS/MS analysis; format: ADME, organism-based; conditions: in vivo, read-out: Vdss
[9] = Volume of distribution at steady state in Beagle dog at 0.5 mg/kg, iv administered as 1 hr infusion on day 1 and day 7 to achieve a target dose of 1 mg/kg by LC-MS/MS analysis; format: ADME, organism-based, Canis lupus familiaris; conditions: in vivo, dose 0.5-1 mg/kg, time 7 day, read-out: Vdss
[10] = Oral bioavailability in Wistar Han rat at 3 mg/kg administered via gavage by LC-MS/MS analysis; format: ADME, organism-based; conditions: in vivo
[11] = Oral bioavailability in Beagle dog; format: ADME, organism-based, Canis lupus familiaris; conditions: in vivo
[12] = Unbound clearance in Wistar Han rat at 1 mg/kg, iv administered as 1 hr infusion or 3 mg/kg, po administered via gavage by LC-MS/MS analysis; format: ADME, organism-based; conditions: in vivo
[13] = Unbound clearance in Beagle dog at 0.5 mg/kg, iv administered as 1 hr infusion on day 1 and day 7 to achieve a target dose of 1 mg/kg by LC-MS/MS analysis; format: ADME, organism-based, Canis lupus familiaris; conditions: in vivo, 168 h, dose 0.5-1 mg/kg, time 7 day
[14] = Half life in Wistar Han rat at 1 mg/kg, iv administered as 1 hr infusion or 3 mg/kg, po administered via gavage by LC-MS/MS analysis; format: ADME, organism-based; conditions: in vivo
[15] = Half life in Beagle dog at 0.5 mg/kg, iv administered as 1 hr infusion on day 1 and day 7 to achieve a target dose of 1 mg/kg by LC-MS/MS analysis; format: ADME, organism-based, Canis lupus familiaris; conditions: in vivo, dose 0.5-1 mg/kg, time 7 day

chromatographic logD (physchem)	solubility at 16 h [1]	Papp [2]	Structure (SMILES)	further results
3.1	91 µg/mL (≈ 233 µM)	16 ×10⁻⁶ cm/s	CNC(=O)c1cc(C(=O)N[C@H]2[C@@H]3COC[C@@H]32)cc(Cc2cccc3[nH]ccc23)n1	CLH [3]: 2.05 mL/min/g; CLH [4]: < 0.65 mL/min/g; CLH [5]: < 0.45 mL/min/g; clearance [6]: 39 mL/min/kg; clearance [7]: 4 mL/min/kg; Vd [8]: 1.8 L/kg; Vd [9]: 0.9 L/kg; bioavailability [10]: 69%; bioavailability [11]: 41%; CL free [12]: 206 mL/min/kg; CL free [13]: 19 mL/min/kg; half-life [14]: 42 min; half-life [15]: 150 min
4	–	35.3 ×10⁻⁶ cm/s	CNC(=O)c1cc(C(=O)N[C@H]2C[C@@H]2C)cc([C@@H](CC#N)c2ccccc2)n1	–
4.6	94 µg/mL (≈ 291 µM)	63 ×10⁻⁶ cm/s	CNC(=O)c1cc(C(=O)N[C@H]2C[C@@H]2C)cc(Cc2ccccc2)n1	–
4.3	–	56 ×10⁻⁶ cm/s	CNC(=O)c1cc(C(=O)N[C@H]2C[C@@H]2C)cc(C(OC)c2ccccc2)n1 (some centres not stated)	–
3.5	43 µg/mL (≈ 118 µM)	15 ×10⁻⁶ cm/s	CNC(=O)c1cc(C(=O)N[C@H]2[C@@H]3C[C@H](O)C[C@@H]32)cc(Cc2ccccc2)n1	–
2.9	–	5.6 ×10⁻⁶ cm/s	CNC(=O)c1cc(C(=O)N[C@H]2[C@@H]3C[C@@H](O)C[C@@H]32)cc(C(OC)c2ccccc2)n1 (some centres not stated)	CLH [3]: < 0.8 mL/min/g; CLH [4]: < 0.65 mL/min/g; CLH [5]: < 0.45 mL/min/g; clearance [6]: 57 mL/min/kg; Vd [8]: 1.8 L/kg; bioavailability [10]: 77%; CL free [12]: 95 mL/min/kg; half-life [14]: 42 min
3.6	744 µg/mL (≈ 1960 µM)	13 ×10⁻⁶ cm/s	CNC(=O)c1cc(C(=O)N[C@H]2[C@@H]3C[C@@H](O)C[C@@H]32)cc([C@@H](C)c2ccccc2)n1	–
4.4	123 µg/mL (≈ 380 µM)	55.5 ×10⁻⁶ cm/s	CNC(=O)c1cc(C(=O)NC2CC2)cc([C@@H](C)c2ccccc2)n1	–
2.2	473 µg/mL (≈ 1290 µM)	2.4 ×10⁻⁶ cm/s	CNC(=O)c1cc(C(=O)N[C@H]2[C@@H]3COC[C@@H]32)cc(C(O)c2ccccc2)n1 (some centres not stated)	–
4.1	572 µg/mL (≈ 1510 µM)	28 ×10⁻⁶ cm/s	CNC(=O)c1cc(C(=O)N[C@H]2[C@@H]3C[C@H](O)C[C@@H]32)cc([C@@H](C)c2ccccc2)n1	–
4.3	182 µg/mL (≈ 563 µM)	49 ×10⁻⁶ cm/s	CNC(=O)c1cc(C(=O)NC2CC2)cc([C@H](C)c2ccccc2)n1	–
3.1	930 µg/mL (≈ 2380 µM)	20 ×10⁻⁶ cm/s	CNC(=O)c1cc(C(=O)N[C@H]2[C@@H]3COC[C@@H]32)cc(C(CC#N)c2ccccc2)n1 (some centres not stated)	CLH [3]: 1.87 mL/min/g; CLH [4]: < 0.65 mL/min/g; CLH [5]: < 0.45 mL/min/g; clearance [6]: 70 mL/min/kg; Vd [8]: 5.9 L/kg; bioavailability [10]: 54%; half-life [14]: 264 min
4.1	117 µg/mL (≈ 320 µM)	37 ×10⁻⁶ cm/s	CNC(=O)c1cc(C(=O)N[C@H]2[C@@H]3COC[C@@H]32)cc([C@@H](C)c2ccccc2)n1	CLH [3]: 2.03 mL/min/g; CLH [4]: < 0.65 mL/min/g; CLH [5]: < 0.45 mL/min/g; clearance [6]: 52 mL/min/kg; clearance [7]: 44 mL/min/kg; Vd [8]: 1.7 L/kg; Vd [9]: 1.3 L/kg; bioavailability [10]: 39%; bioavailability [11]: 14%; CL free [12]: 147 mL/min/kg; CL free [13]: 171 mL/min/kg; half-life [14]: 24 min; half-life [15]: 24 min
3.1	73 µg/mL (≈ 224 µM)	16 ×10⁻⁶ cm/s	CNC(=O)c1cc(C(=O)NC2COC2)cc(Cc2ccccc2)n1	–
3.1	143 µg/mL (≈ 391 µM)	7.1 ×10⁻⁶ cm/s	CNC(=O)c1cc(C(=O)N[C@H]2[C@@H]3C[C@@H](O)C[C@@H]32)cc(Cc2ccccc2)n1	–
2.4	> 1000 µg/mL	7.15 ×10⁻⁶ cm/s	CNC(=O)c1cc(C(=O)NC2CC2)cc([C@@H](O)c2ccccc2)n1	–
3.3	> 1000 µg/mL	10 ×10⁻⁶ cm/s	CNC(=O)c1cc(C(=O)N[C@H]2C[C@@H]2C)cc([C@@H](CO)c2ccccc2)n1	–

The remaining lines, values behind:

Structure (SMILES)	chromatographic logD (physchem)	solubility at 16 h [1]	Papp [2]	further results
CNC(=O)c1cc(C(=O)NC2CC2)cn([C@H](C)c2ccccc2)c1=O	3.5	–	–	–
CNC(=O)c1cc(C(=O)NC2CC2)cn(Cc2cccc3[nH]ccc23)c1=O	–	20 µg/mL (≈ 54.9 µM)	17.8 ×10⁻⁶ cm/s	–
CC(=O)Nc1ccc(C(=O)NCCc2cnc[nH]2)cc1OCc1ccccc1	2.2	–	–	–
CNC(=O)c1cc(C(=O)NC2CC2)cc(Cc2cccc3c2CCN3)n1.Cl	3	953 µg/mL	19 ×10⁻⁶ cm/s	CLH [3]: 0.88 mL/min/g; CLH [4]: < 0.65 mL/min/g; CLH [5]: < 0.45 mL/min/g; clearance [6]: 33 mL/min/kg; Vd [8]: 4.1 L/kg; bioavailability [10]: 98%; CL free [12]: 73 mL/min/kg; half-life [14]: 114 min
CNC(=O)c1cc(C(=O)N[C@H]2CC[C@H](O)CC2)cc(Cc2ccccc2)n1	3.1	473 µg/mL (≈ 1290 µM)	8.6 ×10⁻⁶ cm/s	–
CNC(=O)c1cc(C(N)=O)cc(Cc2ccccc2)n1	2.7	–	21 ×10⁻⁶ cm/s	–
CNC(=O)c1cc(C(=O)N[C@H]2C[C@@H]2C)cc(Cc2cccc3[nH]ccc23)n1	3	127 µg/mL (≈ 350 µM)	18.3 ×10⁻⁶ cm/s	CLH [3]: 1.06 mL/min/g; CLH [4]: < 0.65 mL/min/g; CLH [5]: < 0.45 mL/min/g; clearance [6]: 18 mL/min/kg; clearance [7]: 13 mL/min/kg; Vd [8]: 1.2 L/kg; Vd [9]: 1.6 L/kg; bioavailability [10]: 48%; bioavailability [11]: 55%; CL free [12]: 69 mL/min/kg; CL free [13]: 88 mL/min/kg; half-life [14]: 72 min; half-life [15]: 132 min
CNC(=O)c1cc(C(=O)NC(C)C)cc(Cc2ccccc2)n1	–	101 µg/mL (≈ 324 µM)	57 ×10⁻⁶ cm/s	–
CNC(=O)c1cc(C(=O)O)cc(Cc2ccccc2)n1	–	> 1000 µg/mL	–	–
CNC(=O)c1cc(C(=O)NC2CC2)cn([C@@H](C)c2ccccc2)c1=O	3.3	598 µg/mL (≈ 1760 µM)	–	–
CNC(=O)c1cc(C(=O)NC2CCOCC2)cc(Cc2ccccc2)n1	3.7	173 µg/mL (≈ 489 µM)	22 ×10⁻⁶ cm/s	–
CNC(=O)c1cc(C(=O)NC2CC2)cc(Cc2cccc3[nH]ccc23)n1	3.5	–	30.5 ×10⁻⁶ cm/s	–
CNC(=O)c1cc(C(=O)NCCC[C@H]2OC[C@H](N)CO2)cc(Cc2ccccc2)n1	2.8	–	15 ×10⁻⁶ cm/s	CLH [3]: 1.04 mL/min/g; CLH [4]: < 0.65 mL/min/g; CLH [5]: < 0.45 mL/min/g; clearance [6]: 31 mL/min/kg; clearance [7]: 42 mL/min/kg; Vd [8]: 0.7 L/kg; Vd [9]: 2.4 L/kg; bioavailability [10]: 28%; bioavailability [11]: 98%; CL free [12]: 365 mL/min/kg; CL free [13]: 118 mL/min/kg; half-life [14]: 24 min; half-life [15]: 54 min
CNC(=O)c1cccc(Cc2ccccc2)n1	4.3	258 µg/mL (≈ 1140 µM)	77 ×10⁻⁶ cm/s	–
CCNC(=O)c1cc(Cc2ccccc2)nc(C(=O)NC)c1	3.7	310 µg/mL (≈ 1040 µM)	–	–
CNC(=O)c1cc(C(=O)NC2CC2)cc(Cc2cccc3cn[nH]c23)n1	2.9	–	20 ×10⁻⁶ cm/s	–
CNC(=O)c1cc(Cc2ccccc2)nc(C(=O)NC)c1	3.1	> 1000 µg/mL	20 ×10⁻⁶ cm/s	–
CNC(=O)c1cc(C(=O)NC2CC2)cc(Cc2ccccc2)n1	3.9	89 µg/mL (≈ 288 µM)	38.5 ×10⁻⁶ cm/s	CLH [3]: 5.3 mL/min/g; CLH [4]: < 1.3 mL/min/g; CLH [5]: < 0.87 mL/min/g; clearance [6]: 12 mL/min/kg; Vd [8]: 0.4 L/kg; bioavailability [10]: 29%; CL free [12]: 343 mL/min/kg; half-life [14]: 18 min
CNC(=O)c1cc(C(=O)N[C@H]2C[C@H](O)C2)cc(Cc2ccccc2)n1	2.7	194 µg/mL (≈ 572 µM)	7.3 ×10⁻⁶ cm/s	–
CNC(=O)c1cc(C(=O)N(C)C)cc(Cc2ccccc2)n1	3.3	–	33 ×10⁻⁶ cm/s	–
CC(=O)Nc1c(F)cc(C(=O)N[C@H]2CC[C@H](O)CC2)cc1O[C@@H](C)c1ccccc1 [GSK046]	2.8	–	–	–

Reference: ChEMBL document CHEMBL4808200, “Identification of a Series of N-Methylpyridine-2-carboxamides as Potent and Selective Inhibitors of the Second Bromodomain (BD2) of the Bromo and Extra Terminal Domain (BET) Proteins” (J Med Chem, 2021)
